Laboratory results from PubChem BioAssay AID2060605 (Molecular Pharmacology Branch, DTP, NCI, 2025).
“And” between values parts separate entries of the source, which are not always exact repeats. Identical values can stand only once. One block for each compound: values may come before it.

Test system: 947758-054-R-J2-PDC spheroid growth, percent test/control
Assay: Anticancer human tumor 947758-054-R-J2-PDC patient-derived colon adenocarcinoma cell line growth inhibition [CLK]
Conditions: spheroids with HUVEC and MSC; for viability, T/C: stronger effect = lower value
Procedure, shortened: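 Patient-derived tumor cells grown as complex spheroids with HUVEC endothelial cells and mesenchymal stem cells, treated with drug combinations. Concentrations descend in half-log steps from near clinical Cmax, or from 10 microM if Cmax unknown.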

[1] = curve of first compound, second compound 0.0316 µM
[2] = curve of first compound, second compound 0.1 µM
[3] = curve of first compound, second compound 0.316 µM
[4] = curve of first compound, second compound 1 µM
[5] = curve of first compound, second compound 3.16 µM
[6] = curve of first compound, second compound 10 µM
[7] = second compound 0.0316 µM, first compound 0.0316 µM
[8] = second compound 0.0316 µM, first compound 0.1 µM
[9] = second compound 0.0316 µM, first compound 0.316 µM
[10] = second compound 0.0316 µM, first compound 1 µM
[11] = second compound 0.0316 µM, first compound 3.16 µM
[12] = second compound 0.0316 µM, first compound 10 µM
[13] = second compound 0.1 µM, first compound 0.0316 µM
[14] = second compound 0.1 µM, first compound 0.1 µM
[15] = second compound 0.1 µM, first compound 0.316 µM
[16] = second compound 0.1 µM, first compound 1 µM
[17] = second compound 0.1 µM, first compound 3.16 µM
[18] = second compound 0.1 µM, first compound 10 µM
[19] = second compound 0.316 µM, first compound 0.0316 µM
[20] = second compound 0.316 µM, first compound 0.1 µM
[21] = second compound 0.316 µM, first compound 0.316 µM
[22] = second compound 0.316 µM, first compound 1 µM
[23] = second compound 0.316 µM, first compound 3.16 µM
[24] = second compound 0.316 µM, first compound 10 µM
[25] = second compound 1 µM, first compound 0.0316 µM
[26] = second compound 1 µM, first compound 0.1 µM
[27] = second compound 1 µM, first compound 0.316 µM
[28] = second compound 1 µM, first compound 1 µM
[29] = second compound 1 µM, first compound 3.16 µM
[30] = second compound 1 µM, first compound 10 µM
[31] = second compound 3.16 µM, first compound 0.0316 µM
[32] = second compound 3.16 µM, first compound 0.1 µM
[33] = second compound 3.16 µM, first compound 0.316 µM
[34] = second compound 3.16 µM, first compound 1 µM
[35] = second compound 3.16 µM, first compound 3.16 µM
[36] = second compound 3.16 µM, first compound 10 µM
[37] = second compound 10 µM, first compound 0.0316 µM
[38] = second compound 10 µM, first compound 0.1 µM
[39] = second compound 10 µM, first compound 0.316 µM
[40] = second compound 10 µM, first compound 1 µM
[41] = second compound 10 µM, first compound 3.16 µM
[42] = second compound 10 µM, first compound 10 µM
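Note: spheroids exposed to compounds for one week before readout.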
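Throughout, for viability, T/C: 100% = DMSO vehicle control wells.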

SMILES: COc1cccc2c1C(=O)c1c(O)c3c(c(O)c1C2=O)CC(O)(C(=O)CO)CC3OC1CC(N)C(O)C(C)O1 (stereo not given) + CN1CCN(c2cc(C(=O)Nc3cc4cc(-c5cnn(C)c5)ccc4cn3)ccn2)CC1
- IC50 [1]: 91.3 nM
- IC50 [2]: < 31.6 nM
- IC50 [3]: < 31.6 nM
- IC50 [4]: < 31.6 nM
- IC50 [5]: < 31.6 nM
- IC50 [6]: < 31.6 nM
- viability, T/C [7]: 100%
- viability, T/C [8]: 38.9%
- viability, T/C [9]: 33.2%
- viability, T/C [10]: 4.76%
- viability, T/C [11]: 0.5%
- viability, T/C [12]: 4.61%
- viability, T/C [13]: 44.3%
- viability, T/C [14]: 35.4%
- viability, T/C [15]: 21.1%
- viability, T/C [16]: 1.67%
- viability, T/C [17]: 0.35%
- viability, T/C [18]: 7.75%
- viability, T/C [19]: 1.3%
- viability, T/C [20]: 1.49%
- viability, T/C [21]: 0.27%
- viability, T/C [22]: 0.21%
- viability, T/C [23]: 1.68%
- viability, T/C [24]: 8.73%
- viability, T/C [25]: 0.12%
- viability, T/C [26]: 1.01%
- viability, T/C [27]: 0.13%
- viability, T/C [28]: 0.11%
- viability, T/C [29]: 2.81%
- viability, T/C [30]: 6.86%
- viability, T/C [31]: 0.14%
- viability, T/C [32]: 0.96%
- viability, T/C [33]: 1.03%
- viability, T/C [34]: 0.15%
- viability, T/C [35]: 0.83%
- viability, T/C [36]: 7.28%
- viability, T/C [37]: 0.46%
- viability, T/C [38]: 1.26%
- viability, T/C [39]: 0.8%
- viability, T/C [40]: 0.22%
- viability, T/C [41]: 2.33%
- viability, T/C [42]: 7.23%

SMILES: COC1C=CCC(C)C(C)S(=O)(=O)NC(=O)c2ccc3c(c2)N(CC2CCC21)CC1(CCCc2cc(Cl)ccc21)CO3 (stereo not given) + CN1CCN(c2cc(C(=O)Nc3cc4cc(-c5cnn(C)c5)ccc4cn3)ccn2)CC1
- IC50 [1]: 8020 nM
- IC50 [2]: 8680 nM
- IC50 [3]: < 31.6 nM
- IC50 [4]: < 31.6 nM
- IC50 [5]: < 31.6 nM
- IC50 [6]: < 31.6 nM
- viability, T/C [7]: 111%
- viability, T/C [8]: 106%
- viability, T/C [9]: 111%
- viability, T/C [10]: 97%
- viability, T/C [11]: 101%
- viability, T/C [12]: 37.8%
- viability, T/C [13]: 137%
- viability, T/C [14]: 163%
- viability, T/C [15]: 179%
- viability, T/C [16]: 174%
- viability, T/C [17]: 151%
- viability, T/C [18]: 35.2%
- viability, T/C [19]: 4.59%
- viability, T/C [20]: 2.89%
- viability, T/C [21]: 2.74%
- viability, T/C [22]: 3.21%
- viability, T/C [23]: 3.47%
- viability, T/C [24]: 6.05%
- viability, T/C [25]: 1.87%
- viability, T/C [26]: 4.11%
- viability, T/C [27]: 0.16%
- viability, T/C [28]: 1.58%
- viability, T/C [29]: 1.7%
- viability, T/C [30]: 0.3%
- viability, T/C [31]: 0.35%
- viability, T/C [32]: 0.72%
- viability, T/C [33]: 0.26%
- viability, T/C [34]: 1.14%
- viability, T/C [35]: 0.26%
- viability, T/C [36]: 0.15%
- viability, T/C [37]: 1.19%
- viability, T/C [38]: 3.23%
- viability, T/C [39]: 2.27%
- viability, T/C [40]: 1.77%
- viability, T/C [41]: 0.61%
- viability, T/C [42]: 1.23%

Further lines, with some results ahead:

- IC50 [1]: < 31.6 nM
- IC50 [2]: < 31.6 nM
- IC50 [3]: < 31.6 nM
- IC50 [4]: < 31.6 nM
- IC50 [5]: < 31.6 nM
- IC50 [6]: < 31.6 nM
SMILES: Nc1ccn(C2OC(CO)C(O)C2(F)F)c(=O)n1 (stereo not given) + CNC(=O)c1ccc(Nc2nc(OC3CCCC3)c3c(-c4ccc5nc(C)oc5c4)c[nH]c3n2)c(OC)c1
- viability, T/C [7]: 21.3%
- viability, T/C [8]: 9.39%
- viability, T/C [9]: 10.4%
- viability, T/C [10]: 12.7%
- viability, T/C [11]: 10.1%
- viability, T/C [12]: 7.91%
- viability, T/C [13]: 25.7%
- viability, T/C [14]: 7.76%
- viability, T/C [15]: 9.74%
- viability, T/C [16]: 9.84%
- viability, T/C [17]: 9.52%
- viability, T/C [18]: 7.25%
- viability, T/C [19]: 25.4%
- viability, T/C [20]: 8.69%
- viability, T/C [21]: 7.46%
- viability, T/C [22]: 11.1%
- viability, T/C [23]: 8.56%
- viability, T/C [24]: 6.75%
- viability, T/C [25]: 29.1%
- viability, T/C [26]: 8.29%
- viability, T/C [27]: 5.33%
- viability, T/C [28]: 7.16%
- viability, T/C [29]: 6.13%
- viability, T/C [30]: 8.82%
- viability, T/C [31]: 19.2%
- viability, T/C [32]: 6.89%
- viability, T/C [33]: 6.64%
- viability, T/C [34]: 7.3%
- viability, T/C [35]: 6.33%
- viability, T/C [36]: 4.72%
- viability, T/C [37]: 18.2%
- viability, T/C [38]: 9.83%
- viability, T/C [39]: 3.87%
- viability, T/C [40]: 5.96%
- viability, T/C [41]: 4.8%
- viability, T/C [42]: 3.11%

- IC50 (curve of compound): > 10000 nM
SMILES: CCCS(=O)(=O)Nc1ccc(F)c(C(=O)c2c[nH]c3ncc(-c4ccc(Cl)cc4)cc23)c1F
- viability, T/C (compound 0.0316 µM): 81.8% and 79.5%
- viability, T/C (compound 0.1 µM): 79.8% and 65%
- viability, T/C (compound 0.316 µM): 79.4% and 71%
- viability, T/C (compound 1 µM): 77.4% and 68.7%
- viability, T/C (compound 3.16 µM): 83.3% and 76.3%
- viability, T/C (compound 10 µM): 80.2% and 70.7%

- IC50 (curve of compound): < 31.6 nM
SMILES: CC(=O)O[C@H]1C(=O)[C@@]2(C)[C@H]([C@H](OC(=O)c3ccccc3)[C@]3(O)C[C@H](OC(=O)[C@H](O)[C@@H](NC(=O)c4ccccc4)c4ccccc4)C(C)=C1C3(C)C)[C@]1(OC(C)=O)CO[C@@H]1C[C@@H]2O
- viability, T/C (compound 0.0316 µM): 7.6% and 8.82%
- viability, T/C (compound 0.1 µM): 6.29% and 6.22%
- viability, T/C (compound 0.316 µM): 5.41% and 6.88%
- viability, T/C (compound 1 µM): 5.07% and 6.19%
- viability, T/C (compound 3.16 µM): 6.6% and 8.41%
- viability, T/C (compound 10 µM): 11.7% and 13.7%
